From US4667027A, “Cephem compounds and their production” (Takeda Chemical Industries, Ltd., priority 1984, dated 1987)
In brackets after ≈: the same amount, converted by molar mass.

Legend:
[1] = Toxicity after subcutaneous administration to mice; type: in vivo; details: dose of 1 g/kg, hydrochloride
Experimental: When Antibiotic TAN-592B hydrochloride was administered subcutaneously in a dose of 1 g/kg to mice, no death was observed, and therefore Antibiotic TAN-592 is considered to be low in toxicity.
When Antibiotic TAN-591A hydrochloride was administered subcutaneously a dose of 1 g/kg to mice, no death was observed, and therefore Antibiotic TAN-591 is considered to be low in toxicity.

[2] = test system: Escherichia coli 0-111; test: Therapeutic effect to infectious disease in mice; type: in vivo; details: Escherichia coli, 0111, sc
From the text: The therapeutic effect of TAN-592B.hydrochloride to infectious disease in mice is shown below.
*Intraperitoneal infection
The therapeutic effect of TAN-591A.hydrochloride to infectious disease in mice is shown below.

[3] = test system: Proteus vulgalis IFO 3988; test: Antimicrobial spectrum, minimal inhibitory concentration (agar dilution); type: cell-based; details: hydrochloride, inoculum 1 loopful of about 10^6/ml
From the text: (§1) *Culture medium: 17.5 g of Bacto antibiotic medium 3 (Difco), 5 g of Bact
(§2) yeast extract (Difco), 20 g of Bacto agar (Difco), 1 l of distilled water
(§3) The amount of inoculated microorganism: 1 loopful of about 10^6 /ml o
(§4) microorganism suspension.
(§5) *Medium: Bacto antibiotic medium (Difco) 17.5 g, Bacto yeast extract
(§6) (Difco) 5 g, Bacto agar (Difco) 20 g, distilled water 1 l, pH not

[4] = test system: Citrobacter freundii IFO 12681; test: as above; type: cell-based; details: IFO12681, hydrochloride, inoculum 1 loopful of about 10^6/ml
From the text: as §1, §2, §3, §4, §5, §6

[5] = test system: Escherichia coli NIHJ JC-2; test: as above; type: cell-based; details: NIHJJC2, hydrochloride, inoculum 1 loopful of about 10^6/ml
From the text: as §1, §2, §3, §4, §5, §6

[6] = test system: Salmonella typhimurium IFO 12529; test: as above; type: cell-based; details: Salmonella enterica, hydrochloride, inoculum 1 loopful of about 10^6/ml
From the text: as §1, §2, §3, §4, §5, §6

[7] = test system: Pseudomonas aeruginosa IFO 3080; test: as above; type: cell-based; details: IFO3080, hydrochloride, inoculum 1 loopful of about 10^6/ml
From the text: as §1, §2, §3, §4, §5, §6

[8] = test system: Bacillus subtilis NIHJ PCI 219; test: as above; type: cell-based; details: hydrochloride, inoculum 1 loopful of about 10^6/ml
From the text: as §1, §2, §3, §4, §5, §6

[9] = test system: Klebsiella pneumoniae IFO 3317; test: as above; type: cell-based; details: IFO3317, hydrochloride, inoculum 1 loopful of about 10^6/ml
From the text: as §1, §2, §3, §4, §5, §6

[10] = test system: Brevibacterium thiogenitalis ATCC 19240; test: as above; type: cell-based; details: Corynebacterium glutamicum, ATCC19240, hydrochloride, inoculum 1 loopful of about 10^6/ml
From the text: as §1, §2, §3, §4, §5, §6

[11] = test system: Acinetobacter calcoaceticus IFO 12552; test: as above; type: cell-based; details: IFO12552, hydrochloride, inoculum 1 loopful of about 10^6/ml
From the text: as §1, §2, §3, §4, §5, §6

[12] = test system: Bacillus megaterium IFO 12108; test: as above; type: cell-based; details: Priestia megaterium, IFO12108, hydrochloride, inoculum 1 loopful of about 10^6/ml
From the text: as §1, §2, §3, §4, §5, §6

[13] = test system: Staphylococcus aureus FDA 209P; test: as above; type: cell-based; details: FDA209P, hydrochloride, inoculum 1 loopful of about 10^6/ml
From the text: as §1, §2, §3, §4, §5, §6

[14] = test system: Serratia marcescens IFO 12648; test: as above; type: cell-based; details: IFO12648, hydrochloride, inoculum 1 loopful of about 10^6/ml
From the text: as §1, §2, §3, §4, §5, §6

[15] = test system: Alcaligenes faecalis IFO 13111; test: as above; type: cell-based; details: IFO13111, hydrochloride, inoculum 1 loopful of about 10^6/ml
From the text: as §1, §2, §3, §4, §5, §6

[16] = Solubility in solvents; type: physicochemical; details: hydrochloride
[17] = test system: penicillinase; test: β-lactamase stability test, growth inhibition zone with penicillinase; type: cell-based; details: penicillinase added; test organism Escherichia coli PG8; drug 100 μg/ml; nutrient agar pH 7.0
From the text: (§7) TAN-591A, B, C are stable to various β-lactamases. The results of stability test of the antibiotic to two β-lactamases employing Escherichia coli PG8 as a test organism are shown in Table 5. […]

[18] = test system: Escherichia coli PG8; test: β-lactamase stability test, growth inhibition zone, no β-lactamase added; type: cell-based; details: β-lactamase not added; test organism Escherichia coli PG8; drug 100 μg/ml; nutrient agar pH 7.0; read-out: diameter of growth inhibition zone
From the text: as §7

[19] = test system: cephalosporinase; test: β-lactamase stability test, growth inhibition zone with cephalosporinase; type: cell-based; details: cephalosporinase added; test organism Escherichia coli PG8; drug 100 μg/ml; nutrient agar pH 7.0
From the text: as §7

[20] = dimethylsulfoxide, methanol, acetone, ethyl acetate
[21] = water, aqueous acetone, aqueous alcohol

Row | SMILES | death [1] | ED50 [2] | MIC [3] | MIC [4] | MIC [5] | MIC [6] | MIC [7] | MIC [8] | MIC [9] | MIC [10] | MIC [11] | MIC [12] | MIC [13] | MIC [14] | MIC [15] | Solubility [16, 20] | Solubility [16, 21] | diameter of growth inhibition zone [17] | zone of inhibition at 100 µg/mL [18] | diameter of growth inhibition zone [19]
1 | N=C(N)NCCCC(NC(=O)C(CO)NC(=O)C(N)CO)C(O)CC(=O)OCC1=C(C(=O)O)N2C(=O)C(NC=O)(NC(=O)CCCC(N)C(=O)O)C2SC1 (stereo not shown) [TAN-592B] | no death | 16.2 mg/kg | 12.5 µg/mL (≈ 15.8 µM) | 25 µg/mL (≈ 31.6 µM) | 25 µg/mL (≈ 31.6 µM) | 25 µg/mL (≈ 31.6 µM) | > 50 µg/mL | 12.5 µg/mL (≈ 15.8 µM) | 50 µg/mL (≈ 63.2 µM) | 6.25 µg/mL (≈ 7.9 µM) | 1.56 µg/mL (≈ 1.97 µM) | 12.5 µg/mL (≈ 15.8 µM) | > 50 µg/mL | 25 µg/mL (≈ 31.6 µM) | 6.25 µg/mL (≈ 7.9 µM) | Sparingly soluble | Easily soluble | 29 mm | 29 mm | 29 mm
2 | CC(N)C(=O)NC(CO)C(=O)NC(CO)C(=O)NC(CCCNC(=N)N)C(O)CC(=O)OCC1=C(C(=O)O)N2C(=O)C(NC=O)(NC(=O)CCCC(N)C(=O)O)C2SC1 (stereo not shown) [TAN-592C] | – | – | 25 µg/mL (≈ 29 µM) | > 50 µg/mL | 25 µg/mL (≈ 29 µM) | 25 µg/mL (≈ 29 µM) | > 50 µg/mL | 12.5 µg/mL (≈ 14.5 µM) | 50 µg/mL (≈ 58 µM) | 6.25 µg/mL (≈ 7.25 µM) | 3.13 µg/mL (≈ 3.63 µM) | 12.5 µg/mL (≈ 14.5 µM) | > 50 µg/mL | 50 µg/mL (≈ 58 µM) | 6.25 µg/mL (≈ 7.25 µM) | Sparingly soluble | Easily soluble | 29 mm | 29 mm | 29 mm
3 | N=C(N)NCCCC(NC(=O)C(N)CO)C(O)CC(=O)OCC1=C(C(=O)O)N2C(=O)C(NC=O)(NC(=O)CCCC(N)C(=O)O)C2SC1 (stereo not shown) [TAN-592A] | – | – | 12.5 µg/mL (≈ 17.8 µM) | 50 µg/mL (≈ 71 µM) | 12.5 µg/mL (≈ 17.8 µM) | 50 µg/mL (≈ 71 µM) | 50 µg/mL (≈ 71 µM) | 12.5 µg/mL (≈ 17.8 µM) | 50 µg/mL (≈ 71 µM) | 3.13 µg/mL (≈ 4.45 µM) | 1.56 µg/mL (≈ 2.22 µM) | 12.5 µg/mL (≈ 17.8 µM) | > 50 µg/mL | 50 µg/mL (≈ 71 µM) | 3.13 µg/mL (≈ 4.45 µM) | Sparingly soluble | Easily soluble | 28 mm | 28 mm | 28 mm
4 | CC1(C)S[C@@H]2[C@H](NC(=O)Cc3ccccc3)C(=O)N2[C@H]1C(=O)O [PCG, benzylpenicillin, reference compound] | – | – | – | – | – | – | – | – | – | – | – | – | – | – | – | – | – | – | 22 mm | –
5 | CO[C@@]1(NC(=O)CCC[C@@H](N)C(=O)O)C(=O)N2C(C(=O)O)=C(COC(N)=O)CS[C@@H]21 [CMC, cephamycin C, reference compound] | – | – | – | – | – | – | – | – | – | – | – | – | – | – | – | – | – | 34 mm | 34 mm | –
6 | N=C(N)NCCCC(NC(=O)C(CO)NC(=O)C(N)CO)C(O)CC(=O)OCC1=C(C(=O)O)N2C(=O)C(NC(=O)CCCC(N)C(=O)O)C2SC1 (stereo not shown) [TAN-592E] | – | – | 50 µg/mL (≈ 66.9 µM) | > 50 µg/mL | > 50 µg/mL | 50 µg/mL (≈ 66.9 µM) | > 50 µg/mL | 1.56 µg/mL (≈ 2.09 µM) | > 50 µg/mL | 3.13 µg/mL (≈ 4.19 µM) | > 50 µg/mL | 1.56 µg/mL (≈ 2.09 µM) | > 50 µg/mL | > 50 µg/mL | 25 µg/mL (≈ 33.4 µM) | Sparingly soluble | Easily soluble | – | – | –
7 | CC(N)C(=O)NC(CO)C(=O)NC(CO)C(=O)NC(CCCNC(=N)N)C(O)CC(=O)OCC1=C(C(=O)O)N2C(=O)C(NC(=O)CCCC(N)C(=O)O)C2SC1 (stereo not shown) [TAN-592F] | – | – | 50 µg/mL (≈ 61.1 µM) | > 50 µg/mL | > 50 µg/mL | > 50 µg/mL | > 50 µg/mL | 1.56 µg/mL (≈ 1.91 µM) | > 50 µg/mL | 3.13 µg/mL (≈ 3.82 µM) | > 50 µg/mL | 1.56 µg/mL (≈ 1.91 µM) | 50 µg/mL (≈ 61.1 µM) | > 50 µg/mL | 12.5 µg/mL (≈ 15.3 µM) | Sparingly soluble | Easily soluble | – | – | –
8 | CC(N)C(=O)NC(CO)C(=O)NC(CO)C(=O)NC(CCCCN)C(O)CC(=O)OCC1=C(C(=O)O)N2C(=O)C(NC=O)(NC(=O)CCCC(N)C(=O)O)C2SC1 (stereo not shown) [TAN-591C] | – | – | 50 µg/mL (≈ 60 µM) | 100 µg/mL (≈ 120 µM) | 50 µg/mL (≈ 60 µM) | 50 µg/mL (≈ 60 µM) | > 100 µg/mL | 25 µg/mL (≈ 30 µM) | 50 µg/mL (≈ 60 µM) | 12.5 µg/mL (≈ 15 µM) | 3.13 µg/mL (≈ 3.75 µM) | 25 µg/mL (≈ 30 µM) | > 100 µg/mL | 50 µg/mL (≈ 60 µM) | 50 µg/mL (≈ 60 µM) | Sparingly soluble | Easily soluble | 22 mm | 22 mm | 22 mm
9 | NCCCCC(NC(=O)C(CO)NC(=O)C(N)CO)C(O)CC(=O)OCC1=C(C(=O)O)N2C(=O)C(NC=O)(NC(=O)CCCC(N)C(=O)O)C2SC1 (stereo not shown) [TAN-591B] | – | – | 25 µg/mL (≈ 32.8 µM) | 50 µg/mL (≈ 65.5 µM) | 25 µg/mL (≈ 32.8 µM) | 25 µg/mL (≈ 32.8 µM) | > 100 µg/mL | 25 µg/mL (≈ 32.8 µM) | 50 µg/mL (≈ 65.5 µM) | 6.25 µg/mL (≈ 8.19 µM) | 3.13 µg/mL (≈ 4.1 µM) | 12.5 µg/mL (≈ 16.4 µM) | > 100 µg/mL | 50 µg/mL (≈ 65.5 µM) | 12.5 µg/mL (≈ 16.4 µM) | Sparingly soluble | Easily soluble | 23 mm | 23 mm | 23 mm
10 | N=C(N)NCCCC(NC(=O)C(N)CO)C(O)CC(=O)OCC1=C(C(=O)O)N2C(=O)C(NC(=O)CCCC(N)C(=O)O)C2SC1 (stereo not shown) [TAN-592D] | – | – | 50 µg/mL (≈ 75.7 µM) | > 50 µg/mL | > 50 µg/mL | 50 µg/mL (≈ 75.7 µM) | > 50 µg/mL | 1.56 µg/mL (≈ 2.36 µM) | > 50 µg/mL | 3.13 µg/mL (≈ 4.74 µM) | > 50 µg/mL | 1.56 µg/mL (≈ 2.36 µM) | > 50 µg/mL | > 50 µg/mL | 25 µg/mL (≈ 37.8 µM) | Sparingly soluble | Easily soluble | – | – | –
11 | NCCCCC(NC(=O)C(N)CO)C(O)CC(=O)OCC1=C(C(=O)O)N2C(=O)C(NC=O)(NC(=O)CCCC(N)C(=O)O)C2SC1 (stereo not shown) [TAN-591A] | no death | 16.2 mg/kg | 25 µg/mL (≈ 37 µM) | 50 µg/mL (≈ 74 µM) | 25 µg/mL (≈ 37 µM) | 25 µg/mL (≈ 37 µM) | 100 µg/mL (≈ 148 µM) | 12.5 µg/mL (≈ 18.5 µM) | 50 µg/mL (≈ 74 µM) | 6.25 µg/mL (≈ 9.25 µM) | 1.56 µg/mL (≈ 2.31 µM) | 12.5 µg/mL (≈ 18.5 µM) | > 100 µg/mL | 25 µg/mL (≈ 37 µM) | 6.25 µg/mL (≈ 9.25 µM) | Sparingly soluble | Easily soluble | 22 mm | 22.5 mm | 22 mm
